Results reported in US9028845B2, “Chimeric immunomodulatory compounds and methods of using the same-IV” (Dynavax Technologies Corporation, priority 2001, dated 2015).

Test system: human PBMCs
Assay: Human PBMC cytokine response assay (IFN-γ and IFN-α in cell-free medium by ELISA), with or without cPLGA;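 on IFN-α (pg/ml) mean: 20 µg/mL compound for 24 hours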;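 on IFN-γ (pg/ml) mean: 20 µg/mL compound for 24 hours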
Format: cell-based
Details: for immunomodulatory activity (IFN-γ / IFN-α secretion), in words: used alone (no cPLGA); for IFN-a mean / IFN-g mean: mean of donors 28250-28253
[1] = mean of donors 110, 112, 119, 120, Table 14
[2] = mean of donors 28185-28188, Table 15
[3] = Table 24, mean of donors 28234-28237
[4] = Table 25, donor 28250, polynucleotides/spacers at amounts equivalent to the CIC, spacers alone 9 uM
[5] = mean of donors 28057-28060, Table 16

## 5′-ACGTTCG-3′-HEG-5′-TCGTCGA-3′-HEG-5′-AGATGAT-3′ [Compound C-57]
Table 13, donor 28156
  IFN-α: 5 pg/mL
  IFN-γ: 419 pg/mL
Table 13, donor 28157
  IFN-α: 52 pg/mL
  IFN-γ: 323 pg/mL
Table 13, donor 28158
  IFN-α: 61 pg/mL
  IFN-γ: 67 pg/mL
Table 13, donor 28159
  IFN-α: 42 pg/mL
  IFN-γ: 262 pg/mL
Table 13, mean of donors
  IFN-α mean: 40 pg/mL
  IFN-γ mean: 268 pg/mL
  immunomodulatory activity (IFN-γ / IFN-α secretion), in words: somewhat more active than C-58

## 5′-TCGTCGA-3′-HEG-5′-TCGTCGA-3′ [Compound C-39]
Table 10, donor 28042
  IFN-α: 31 pg/mL
  IFN-γ: 343 pg/mL
Table 10, donor 28043
  IFN-α: 187 pg/mL
  IFN-γ: 488 pg/mL
Table 10, donor 28044
  IFN-α: 46 pg/mL
  IFN-γ: 281 pg/mL
Table 10, donor 28045
  IFN-α: 36 pg/mL
  IFN-γ: 137 pg/mL
Table 10, mean of donors
  IFN-α mean: 75 pg/mL
  IFN-γ mean: 312 pg/mL
Donor 110, Table 14
  IFN-α: 674 pg/mL
  IFN-γ: 604 pg/mL
Donor 112, Table 14
  IFN-α: 26 pg/mL
  IFN-γ: 116 pg/mL
Donor 119, Table 14
  IFN-α: 444 pg/mL
  IFN-γ: 108 pg/mL
Donor 120, Table 14
  IFN-α: 250 pg/mL
  IFN-γ: 32 pg/mL
  activity when formulated with cPLGA, in words: significant activity when formulated with cPLGA
  immunomodulatory activity (IFN-γ / IFN-α secretion), in words: active when used alone
[1]
  IFN-α (pg/ml) mean: 349 pg/mL
  IFN-γ (pg/ml) mean: 215 pg/mL

## 5′-TCGTCGA-3′-HEG-5′-AACGTTC-3′-HEG-5′-AGATGAT-3′ [Compound C-54]
Table 13, donor 28156
  IFN-α: 8 pg/mL
  IFN-γ: 297 pg/mL
Table 13, donor 28157
  IFN-α: 96 pg/mL
  IFN-γ: 378 pg/mL
Table 13, donor 28158
  IFN-α: 8 pg/mL
  IFN-γ: 88 pg/mL
Table 13, donor 28159
  IFN-α: 13 pg/mL
  IFN-γ: 218 pg/mL
Table 13, mean of donors
  IFN-α mean: 31 pg/mL
  IFN-γ mean: 245 pg/mL

## 5′-TCGTCGA-3′-HEG-5′-ACGTTCG-3′-HEG-5′-GGGGGG-3′ [Compound C-49]
Table 11, donor 28042
  IFN-α: 30 pg/mL
  IFN-γ: 367 pg/mL
Table 11, donor 28043
  IFN-α: 8 pg/mL
  IFN-γ: 433 pg/mL
Table 11, donor 28044
  IFN-α: 100 pg/mL
  IFN-γ: 767 pg/mL
Table 11, donor 28045
  IFN-α: 88 pg/mL
  IFN-γ: 353 pg/mL
Table 11, mean of donors
  IFN-α mean: 57 pg/mL
  IFN-γ mean: 480 pg/mL

## Starburst Dendrimer ® -(5′-TGACTGTGAACGTTCGAGATGA-3′)x (X range = 3-16) (SEQ ID NO: 2) (See Ex. 24) [Compound C-102]
Donor 28185, Table 15
  IFN-a: 1880 pg/mL
  IFN-g: 158 pg/mL
Donor 28186, Table 15
  IFN-a: 187 pg/mL
  IFN-g: 43 pg/mL
Donor 28187, Table 15
  IFN-a: 109 pg/mL
  IFN-g: 101 pg/mL
Donor 28188, Table 15
  IFN-a: 4 pg/mL
  IFN-g: 6 pg/mL
[2]
  IFN-a (pg/ml) mean: 545 pg/mL
  IFN-g (pg/ml) mean: 77 pg/mL
Mean ×2, Table 15
  IFN-a (pg/ml) ×2: 1090 pg/mL
Mean ×4, Table 15
  IFN-g (pg/ml) ×4: 307 pg/mL
Used alone
  IFN-α induction, in words: significantly more IFN-α activity than the P-6 sequence alone

## 5′-GsGs-3′-C3-5′-TGC-3′-C3-5′-ATCGAT-3′-C3-5′-GCA-3′-C3-5′-GGsGsGsGsG-3′ (s = phosphorothioate linkages, otherwise linkages are phosphodiester) [Compound C-84]
Table 11, donor 28042
  IFN-α: 0 pg/mL
  IFN-γ: 29 pg/mL
Table 11, donor 28043
  IFN-α: 0 pg/mL
  IFN-γ: 23 pg/mL
Table 11, donor 28044
  IFN-α: 5 pg/mL
  IFN-γ: 69 pg/mL
Table 11, donor 28045
  IFN-α: 222 pg/mL
  IFN-γ: 232 pg/mL
Table 11, mean of donors
  IFN-α mean: 57 pg/mL
  IFN-γ mean: 88 pg/mL

## 5′-TCGACGT-3′-HEG-5′-TCGACGT-3′-HEG-5′-TCGACGT-3′ [Compound C-51]
HEG CIC vs C3 CIC
  IFN-α induced relative to C-90 (C3 CIC): 8 fold
Table 10, donor 28042
  IFN-α: 112 pg/mL
  IFN-γ: 795 pg/mL
Table 10, donor 28043
  IFN-α: 245 pg/mL
  IFN-γ: 1349 pg/mL
Table 10, donor 28044
  IFN-α: 240 pg/mL
  IFN-γ: 1114 pg/mL
Table 10, donor 28045
  IFN-α: 36 pg/mL
  IFN-γ: 411 pg/mL
Table 10, mean of donors
  IFN-α mean: 158 pg/mL
  IFN-γ mean: 917 pg/mL
Table 24, donor 28234
  IFN-α: 16 pg/mL
  IFN-γ: 17 pg/mL
Table 24, donor 28235
  IFN-α: 77 pg/mL
  IFN-γ: 123 pg/mL
Table 24, donor 28236
  IFN-α: 352 pg/mL
  IFN-γ: 193 pg/mL
Table 24, donor 28237
  IFN-α: 3798 pg/mL
  IFN-γ: 1580 pg/mL
[3]
  IFN-α mean: 1061 pg/mL
  IFN-γ mean: 478 pg/mL
Table 25, donor 28250
  IFN-a: 181 pg/mL
[4]
  IFN-g: 135 pg/mL
Table 25, donor 28251
  IFN-a: 246 pg/mL
  IFN-g: 45 pg/mL
Table 25, donor 28252
  IFN-a: 95 pg/mL
  IFN-g: 164 pg/mL
Table 25, donor 28253
  IFN-a: 1226 pg/mL
  IFN-g: 167 pg/mL
Table 25
  IFN-a mean: 437 pg/mL
  IFN-g mean: 128 pg/mL
Donor 110, Table 14
  IFN-α: 1408 pg/mL
  IFN-γ: 1528 pg/mL
Donor 112, Table 14
  IFN-α: 72 pg/mL
  IFN-γ: 240 pg/mL
Donor 119, Table 14
  IFN-α: 2200 pg/mL
  IFN-γ: 52 pg/mL
Donor 120, Table 14
  IFN-α: 622 pg/mL
  IFN-γ: 40 pg/mL
[1]
  IFN-α (pg/ml) mean: 1076 pg/mL
  IFN-γ (pg/ml) mean: 465 pg/mL
Used alone
  IFN-α induction, in words: generated more IFN-α than CICs containing a 5′-TCGT-3′
  IFN-γ induction, in words: similar
  immunomodulatory activity (IFN-γ / IFN-α secretion), in words: more active than other CG-containing CICs

## 5′-TCGTCGA-3′-(HEG)6-5′-TCGTCGA-3′ (phosphodiester linkages) [Compound C-36]
  activity when formulated with cPLGA, in words: significantly more active when formulated with cPLGA
  immunomodulatory activity (IFN-γ / IFN-α secretion), in words: inactive as CICs alone

## 5′-TCGAGAT-3′-HEG-5′-TCGAGAT-3′-HEG-5′-TCGAGAT-3′ [Compound C-45]
Table 10, donor 28042
  IFN-α: 62 pg/mL
  IFN-γ: 590 pg/mL
Table 10, donor 28043
  IFN-α: 123 pg/mL
  IFN-γ: 1466 pg/mL
Table 10, donor 28044
  IFN-α: 152 pg/mL
  IFN-γ: 984 pg/mL
Table 10, donor 28045
  IFN-α: 14 pg/mL
  IFN-γ: 253 pg/mL
Table 10, mean of donors
  IFN-α mean: 88 pg/mL
  IFN-γ mean: 823 pg/mL
Table 25, donor 28250
  IFN-a: 16 pg/mL
[4]
  IFN-g: 107 pg/mL
Table 25, donor 28251
  IFN-a: 109 pg/mL
  IFN-g: 26 pg/mL
Table 25, donor 28252
  IFN-a: 55 pg/mL
  IFN-g: 95 pg/mL
Table 25, donor 28253
  IFN-a: 382 pg/mL
  IFN-g: 8 pg/mL
Table 25
  IFN-a mean: 140 pg/mL
  IFN-g mean: 59 pg/mL
Donor 110, Table 14
  IFN-α: 446 pg/mL
  IFN-γ: 880 pg/mL
Donor 112, Table 14
  IFN-α: 130 pg/mL
  IFN-γ: 192 pg/mL
Donor 119, Table 14
  IFN-α: 1074 pg/mL
  IFN-γ: 52 pg/mL
Donor 120, Table 14
  IFN-α: 428 pg/mL
  IFN-γ: 36 pg/mL
[1]
  IFN-α (pg/ml) mean: 520 pg/mL
  IFN-γ (pg/ml) mean: 290 pg/mL
Used alone
  IFN-α induction, in words: generated more IFN-α than CICs containing a 5′-TCGT-3′

## 5′-TCGTCGA-3′-C3-5′-TCGTCGA-3′-C3-5′-TCGTCGA-3′ all phosphorothioate linkages [Compound C-33]
Table 9, donor 28089
  IFN-α: 56 pg/mL
  IFN-γ: 0 pg/mL
Table 9, donor 28090
  IFN-α: 22 pg/mL
  IFN-γ: 0 pg/mL
Table 9, donor 28098
  IFN-α: 34 pg/mL
  IFN-γ: 0 pg/mL
Table 9, donor 28099
  IFN-α: 30 pg/mL
  IFN-γ: 3 pg/mL
Table 9, mean of donors
  IFN-α mean: 36 pg/mL
  IFN-γ mean: 1 pg/mL
Table 24, donor 28234
  IFN-α: 16 pg/mL
  IFN-γ: 23 pg/mL
Table 24, donor 28235
  IFN-α: 16 pg/mL
  IFN-γ: 86 pg/mL
Table 24, donor 28236
  IFN-α: 16 pg/mL
  IFN-γ: 247 pg/mL
Table 24, donor 28237
  IFN-α: 91 pg/mL
  IFN-γ: 2076 pg/mL
[3]
  IFN-α mean: 35 pg/mL
  IFN-γ mean: 608 pg/mL

## 5′-TCGTCG-3′-HEG-5′-TCGA-3′ [Compound C-40]
Table 10, donor 28042
  IFN-α: 0 pg/mL
  IFN-γ: 26 pg/mL
Table 10, donor 28043
  IFN-α: 26 pg/mL
  IFN-γ: 55 pg/mL
Table 10, donor 28044
  IFN-α: 31 pg/mL
  IFN-γ: 20 pg/mL
Table 10, donor 28045
  IFN-α: 2 pg/mL
  IFN-γ: 23 pg/mL
Table 10, mean of donors
  IFN-α mean: 15 pg/mL
  IFN-γ mean: 31 pg/mL
Donor 110, Table 14
  IFN-α: 6 pg/mL
  IFN-γ: 180 pg/mL
Donor 112, Table 14
  IFN-α: 198 pg/mL
  IFN-γ: 12 pg/mL
Donor 119, Table 14
  IFN-α: 152 pg/mL
  IFN-γ: 4 pg/mL
Donor 120, Table 14
  IFN-α: 2 pg/mL
  IFN-γ: 20 pg/mL
  activity when formulated with cPLGA, in words: significant activity when formulated with cPLGA
  immunomodulatory activity (IFN-γ / IFN-α secretion), in words: inactive in this experiment
[1]
  IFN-α (pg/ml) mean: 90 pg/mL
  IFN-γ (pg/ml) mean: 54 pg/mL

## 5′-TCGTCG-3′-(C3)15-5′-T-3′ [Compound C-13]
Donor 28057, Table 16
  IFN-α: 31 pg/mL
  IFN-γ: 2 pg/mL
Donor 28058, Table 16
  IFN-α: 0 pg/mL
  IFN-γ: 3 pg/mL
Donor 28059, Table 16
  IFN-α: 249 pg/mL
  IFN-γ: 12 pg/mL
Donor 28060, Table 16
  IFN-α: 0 pg/mL
  IFN-γ: 5 pg/mL
  activity when formulated with cPLGA, in words: all had significant activity when formulated on cPLGA
  immunomodulatory activity (IFN-γ / IFN-α secretion), in words: None of the CICs was active when used alone
[5]
  IFN-α (pg/ml) mean: 70 pg/mL
  IFN-γ (pg/ml) mean: 6 pg/mL

## 5′-TCCA-3′-C3-5′-TGACGTT-3′-C3-5′-CCTGATGCT-3′ [Compound C-88]
Table 24, donor 28234
  IFN-α: 95 pg/mL
  IFN-γ: 5 pg/mL
Table 24, donor 28235
  IFN-α: 16 pg/mL
  IFN-γ: 21 pg/mL
Table 24, donor 28236
  IFN-α: 212 pg/mL
  IFN-γ: 17 pg/mL
Table 24, donor 28237
  IFN-α: 111 pg/mL
  IFN-γ: 477 pg/mL
[3]
  IFN-α mean: 109 pg/mL
  IFN-γ mean: 130 pg/mL
